Target: TRAP protein (Staphylococcus aureus, UniProt Q6GFM2)
Type: biochemical
Parameters: 6xHis (C); made in house; host or cells: Escherichia coli
Details: for TRAP phosphorylation induced by oxidative and reductive agents: same procedure as Example 3, FIG. 5; for in vitro phosphorylation of TRAP protein by using metal ions: 20 μM or 200 μM metal ions, 37° C. 30 minutes, FIG. 2; for metal ion concentration above which TRAP protein is maximally phosphorylated: various ion concentrations, other conditions as Example 3, FIG. 3
Method: The TRAP protein obtained in Example 2 was prepared with each tube according to following compositions of Table 2.
The protein sample prepared above was reacted at 37° C. for 30 minutes, then mixed with 2× loading dye 10 l (BioRad), and analyzed by performing SDS-PAGE at 150 V for an hour. Afterward, the resulting gel was dried and exposed onto an X-ray film to measure a degree of phosphorylation. The result is illustrated in FIG. 2. In the upper part of FIG. 2, 20 μM metal ions, Mg, Zn, Cu, Fe, Mn, Ni, Co are used in Lane 1 through Lane 7, respectively. In the lower part of FIG. 2, 200 μM metal ions, Mg, Cu, Zn, Ni, Co, Ca are used in Lane 1 through Lane 7, respectively.
Generally, a protein kinase binds with ATP, hydrolyzes ATP into ADP and attaches a resulting phosphate onto a specific amino acid of the protein to phosphorylate. In this process, Mg^2+ ions play a role of a subsidiary enzyme to stabilize the kinase binding with phosphates of ATP. […] The present inventors have attempted to elucidate why the TRAP protein utilizes the transition metal ions. […] Various oxidative and reductive agents were used to induce a phosphorylation in this Example.
In order to measure the TRAP phosphorylation, a quantitative analysis was performed by using FeSO4, ZnCl2 and CuCl2, in this Example. FeSO4, ZnCl2 and CuCl2, were added to each reaction at various ion concentrations and other conditions of the phosphorylation are the same as that of Example 3. The result is illustrated in FIG. 3.

Sequence of TRAP protein (Q6GFM2 whole entry): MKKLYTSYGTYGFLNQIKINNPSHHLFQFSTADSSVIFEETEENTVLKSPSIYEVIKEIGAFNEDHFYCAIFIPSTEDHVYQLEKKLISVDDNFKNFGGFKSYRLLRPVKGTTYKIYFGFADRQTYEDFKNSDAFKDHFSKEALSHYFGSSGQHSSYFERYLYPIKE

| Structure (SMILES) | TRAP phosphorylation induced by oxidative and reductive agents | in vitro phosphorylation of TRAP protein by using metal ions | metal ion concentration above which TRAP protein is maximally phosphorylated | TRAP phosphorylation inhibited by a reducing agent (summary statement) |
| --- | --- | --- | --- | --- |
| OO [H2O2, reference compound] | induced |  |  |  |
| [Cl][Cu][Cl] [CuCl2] |  | in vitro phosphorylated | > 20 µM |  |
| O=C1O[C@H]([C@@H](O)CO)C(O)=C1O [ascorbic acid, reference compound] | not |  |  | inhibited |
| [Cl-].[Cl-].[Mg+2] [Mg^2+, MgCl2] |  | not phosphorylated |  |  |
| [Cl-].[Cl-].[Zn+2] [ZnCl2] |  | in vitro phosphorylated | > 100 µM |  |
| O=S(=O)([O-])[O-].[Fe+2] [FeSO4] |  | in vitro phosphorylated | > 2 µM |  |

Source: patent publication US7927829B2, “Method for in vitro phosphorylation of trap of Staphylococcus aureus and a method for screening the inhibitor of the trap phosphorylation” (priority 2007, dated 2011)
